Data on 35 compounds can be found in patent publication US11407740B2 (priority 2018, dated 2022).

For the experiment, the system named is E. coli. As to the kind of experiment: Bacterial susceptibility testing, MIC by broth microdilution (CLSI). The conditions noted are these: for E. coli MIC: broth microdilution, 35° C., 18-24 h; for MIC: Escherichia coli, read-out: E. coli MIC, broth microdilution, 35° C., 18-24 h.

The structures appear in SMILES notation. Values after ≈ are worked out from the molar mass of the structure shown.

In the case of `O=C(CO)N1CC[C@@H](NCc2ccc(C#Cc3ccc(C(CO)Cc4nc[nH]c(=O)c4O)cc3)cc2)C1` (single isomer, unassigned) [Compound 46], the “E. coli MIC” value is given as “A (A: ≤1 μg/mL)”.
Usually MIC stands for the smallest concentration in the dilution series that meets the test's criterion for growth inhibition. With `COC1CN(Cc2ccc(C#Cc3ccc(C(CN[C@H](C)CF)Cc4nc[nH]c(=O)c4O)cc3)cc2)C1` (single isomer, unassigned) [Compound 69], the minimal inhibitory concentration (MIC) was below 1 µg/mL.
On to `CO[C@@H]1CCN(Cc2ccc(C#Cc3ccc(C(CN[C@@H](C)CF)Cc4nc[nH]c(=O)c4O)cc3)cc2)C1` (single isomer, unassigned) [Compound 87], for which the “E. coli MIC” value is recorded as “B (B: >1 μg/mL to ≤8.0 μg/mL)”.
On to `C[C@@H](CC#N)NCC(Cc1nc[nH]c(=O)c1O)c1ccc(C#Cc2ccc(CN3CCOCC3)cc2)cc1` (single isomer, unassigned) [Compound 98], for which the MIC is below 1 µg/mL.
Same read-out and setting: then `C[C@@H](CC#N)NCC(Cc1ncnc(O)c1O)c1ccc(C#Cc2ccc(CN3CCOCC3)cc2)cc1` (single isomer, unassigned) [Compound 99], with below 1 µg/mL; and `C[C@H](CC#N)NCC(Cc1ncnc(O)c1O)c1ccc(C#Cc2ccc(CN3CCOCC3)cc2)cc1` (single isomer, unassigned) [Compound 100], with below 1 µg/mL.
Same read-out and setting: then `O=c1[nH]cnc(C[C@@H](CNCC(F)F)c2ccc(C#Cc3ccc(CN4CCOCC4)cc3)cc2)c1O` (single isomer, unassigned) [Compound 116], with 1 to 8 µg/mL (≈ 1.97 to 15.7 µM).
Still for that read-out and setting: then `O=c1[nH]cnc(C[C@H](CNCC(F)F)c2ccc(C#Cc3ccc(CN4CCOCC4)cc3)cc2)c1O` (single isomer, unassigned) [Compound 117], with below 1 µg/mL.
Regarding `CO[C@@H]1CCN(Cc2ccc(C#Cc3ccc(C(CNCC(C)F)Cc4nc[nH]c(=O)c4O)cc3)cc2)C1` (single isomer, unassigned) [Compound 136], the “E. coli MIC” value is “D (D: >32 μg/mL)”.
`CO[C@@H]1CCN(Cc2ccc(C#Cc3ccc(C(CNCC(C)F)Cc4nc[nH]c(=O)c4O)cc3)cc2)C1` (single isomer, unassigned) [Compound 137]: the “E. coli MIC” value was “B (B: >1 μg/mL to ≤8.0 μg/mL)”.
Turning to `O=c1[nH]cnc(CC(CN[C@@H]2CCOC2)c2ccc(C#Cc3ccc(CN4CCOCC4)cc3)cc2)c1O` (single isomer, unassigned) [Compound 162], the MIC fell in the range of 1 to 8 µg/mL (≈ 1.94 to 15.5 µM).
As to `O=c1[nH]cnc(CC(CN[C@@H]2CCOC2)c2ccc(C#Cc3ccc(CN4CCOCC4)cc3)cc2)c1O` (single isomer, unassigned) [Compound 163], the “E. coli MIC” value is “A (A: ≤1 μg/mL)”.
With `C[C@@H](CO)NCC(Cc1nc[nH]c(=O)c1O)c1ccc(C#Cc2ccc(CN3CCOCC3)cc2)cc1` (single isomer, unassigned) [Compound 168], the “E. coli MIC” value was “B (B: >1 μg/mL to ≤8.0 μg/mL)”.
Still for that read-out and setting: next, `C[C@@H](CO)NCC(Cc1nc[nH]c(=O)c1O)c1ccc(C#Cc2ccc(CN3CCOCC3)cc2)cc1` (single isomer, unassigned) [Compound 169]: “A (A: ≤1 μg/mL)”.
Turning to `C[C@H](CO)NCC(Cc1nc[nH]c(=O)c1O)c1ccc(C#Cc2ccc(CN3CCOCC3)cc2)cc1` (single isomer, unassigned) [Compound 170], the MIC was in the range of 1 to 8 µg/mL (≈ 1.99 to 15.9 µM).
As for `C[C@H](CO)NCC(Cc1nc[nH]c(=O)c1O)c1ccc(C#Cc2ccc(CN3CCOCC3)cc2)cc1` (single isomer, unassigned) [Compound 171], the “E. coli MIC” value is reported as “A (A: ≤1 μg/mL)”.
With `C[C@@H](CF)NCC(Cc1nc[nH]c(=O)c1O)c1ccc(C#Cc2ccc(CNC3CCS(=O)(=O)C3)cc2)cc1` (single isomer, unassigned) [Compound 178], the MIC lay within 1 to 8 µg/mL (≈ 1.81 to 14.5 µM).
The same measure, in the same setting: then `CC(=O)N1CC[C@H](NCC(Cc2nc[nH]c(=O)c2O)c2ccc(C#Cc3ccc(CN4CCOCC4)cc3)cc2)C1` (single isomer, unassigned) [Compound 182], with 1 to 8 µg/mL (≈ 1.8 to 14.4 µM).
Turning to `CC(=O)N1CC[C@H](NCC(Cc2nc[nH]c(=O)c2O)c2ccc(C#Cc3ccc(CN4CCOCC4)cc3)cc2)C1` (single isomer, unassigned) [Compound 183], the “E. coli MIC” value is given as “A (A: ≤1 μg/mL)”.
Consider `O=c1[nH]cnc(CC(CN[C@@H]2CCS(=O)(=O)C2)c2ccc(C#Cc3ccc(CN4CCOCC4)cc3)cc2)c1O` (single isomer, unassigned) [Compound 186], for which the MIC is below 1 µg/mL.
Still for that read-out and setting: next, `O=c1[nH]cnc(CC(CN[C@H]2CCS(=O)(=O)C2)c2ccc(C#Cc3ccc(CN4CCOCC4)cc3)cc2)c1O` (single isomer, unassigned) [Compound 188]: below 1 µg/mL.
Turning to `O=c1[nH]cnc(C[C@@H](CN2CC(F)C2)c2ccc(C#Cc3ccc(CN4CCOCC4)cc3)cc2)c1O` (single isomer, unassigned) [Compound 215], the MIC is below 1 µg/mL.
Still for that read-out and setting: next, `O=c1[nH]cnc(C[C@H](CN2CC(F)C2)c2ccc(C#Cc3ccc(CN4CCOCC4)cc3)cc2)c1O` (single isomer, unassigned) [Compound 216]: below 1 µg/mL; `COC1CN(Cc2ccc(C#Cc3ccc([C@@H](CO)Cc4nc[nH]c(=O)c4O)cc3)cc2)C1` (single isomer, unassigned) [Compound 217]: below 1 µg/mL; `COC1CN(Cc2ccc(C#Cc3ccc([C@H](Cc4nc[nH]c(=O)c4O)CN4CC(C#N)C4)cc3)cc2)C1` (single isomer, unassigned) [Compound 218]: below 1 µg/mL.
Still for that read-out and setting: next, `COC1CN(Cc2ccc(C#Cc3ccc([C@@H](Cc4nc[nH]c(=O)c4O)CN(C)C4CC4)cc3)cc2)C1` (single isomer, unassigned) [Compound 219]: below 1 µg/mL; `COC1CN(Cc2ccc(C#Cc3ccc([C@H](Cc4nc[nH]c(=O)c4O)CN(C)C4CC4)cc3)cc2)C1` (single isomer, unassigned) [Compound 220]: below 1 µg/mL; `COC1CN(Cc2ccc(C#Cc3ccc([C@](C)(CNC4CC4)Cc4nc[nH]c(=O)c4O)cc3)cc2)C1` (single isomer, unassigned) [Compound 227]: 1 to 8 µg/mL (≈ 2.01 to 16 µM).
`COC1CN(Cc2ccc(C#Cc3ccc([C@@](C)(CNC4CC4)Cc4nc[nH]c(=O)c4O)cc3)cc2)C1` (single isomer, unassigned) [Compound 228]: the MIC is below 1 µg/mL.
In the case of `O=c1[nH]cnc(C[C@@H](CN2CC(O)C2)c2ccc(C#Cc3ccc(CN4CCOCC4)cc3)cc2)c1O` (single isomer, unassigned) [Compound 229], the MIC fell in the range of 1 to 8 µg/mL (≈ 2 to 16 µM).
The same measure, in the same setting: then `O=c1[nH]cnc(C[C@H](CN2CC(O)C2)c2ccc(C#Cc3ccc(CN4CCOCC4)cc3)cc2)c1O` (single isomer, unassigned) [Compound 230], with below 1 µg/mL.
As for `CC(=O)N1CC[C@@H](NCc2ccc(C#Cc3ccc(C(CO)Cc4nc[nH]c(=O)c4O)cc3)cc2)C1` (single isomer, unassigned) [Compound 233], the “E. coli MIC” value is “B (B: >1 μg/mL to ≤8.0 μg/mL)”.
On the same count and under the same terms, next, `CC(=O)N1CC[C@@H](NCc2ccc(C#Cc3ccc(C(CO)Cc4nc[nH]c(=O)c4O)cc3)cc2)C1` (single isomer, unassigned) [Compound 234]: “A (A: ≤1 μg/mL)”.
Turning to `N#CC1CN(C[C@H](Cc2nc[nH]c(=O)c2O)c2ccc(C#Cc3ccc(CN4CC[C@H](C#N)C4)cc3)cc2)C1` (single isomer, unassigned) [Compound 235], the MIC was below 1 µg/mL.
Still for that read-out and setting: next, `N#CC1CN(C[C@@H](Cc2nc[nH]c(=O)c2O)c2ccc(C#Cc3ccc(CN4CC[C@H](C#N)C4)cc3)cc2)C1` (single isomer, unassigned) [Compound 236]: below 1 µg/mL.
